Measurements taken from PMC5777145 (Analytical chemistry, 2017).
“Also recorded” adds a separate entry of the source.

How the values were obtained:
salmon testes DNA [1] = details: for ECL intensity vs enzyme reaction time, DNA oxidation (8-oxodG): 3 mM 4ABP, AF or anisidine, 5 mM NA, pH 7.4 + NADPH regenerating system + Cu2+, different cyt P450 sources, ECL at 0.7 V
DNA = details: cited from earlier work
[2] = ref International Agency for Research on Cancer (IARC); cited from earlier work
cyt P450s = experiment: Mass spectrometry of metabolites after incubation with cyt P450s, NADPH and Cu2+; format: in vitro ADME; details: positive-ion electrospray MS
salmon testes DNA [3] = test system: salmon testes DNA
[4] = rodent TD50, Comet assay; cited from earlier work

SMILES | ECL intensity vs enzyme reaction time, DNA oxidation (8-oxodG) (salmon testes DNA [1]) | major DNA adduct found (DNA) | carcinogen classification [2] | metabolites found (cyt P450s) | relative turnover rate R, DNA oxidation (level in words) (salmon testes DNA [1]) | influence of cyt P450 source on relative DNA oxidation rate (salmon testes DNA [1]; human, rat (enzyme sources), salmon (DNA), pH 7.4) | order of relative DNA oxidation rates (salmon testes DNA [1]; pH 7.4) | order of relative DNA adduction rate (salmon testes DNA [3]) | relative turnover rate R, DNA adduction (level in words) (salmon testes DNA [3]; array R values) | influence of cyt P450 source on relative DNA adduction rate (salmon testes DNA [3]; human, rat (enzyme sources), salmon (DNA)) | toxicity by conventional bioassays [4]
Nc1ccc(-c2ccccc2)cc1 [4ABP, 4-Aminobiphenyl] | increase in ECL intensity with reaction time | N-(2′-deoxyguanosin-8-yl)-4-aminobiphenyl | group I carcinogen | – | – | – | – | – | – | – | –
Nc1ccc2c(c1)Cc1ccccc1-2 [AF, 2-aminofluorene] | increases in ECL with reaction time | – | – | – | – | – | – | – | – | – | –
Nc1ccc2ccccc2c1 [NA, 2-naphthylamine] | increases in ECL with reaction time | N-(2′-deoxyguanosin-8-yl)-2-naphthylamine | – | hydronitroxide radical; also recorded: nitroso naphthalene | smaller R values | Supersome 1A2 had the largest relative DNA oxidation and adduction rates | 4-ABP > AF ≈ anisidine > NA | 4-ABP > AF > anisidine > NA | smaller R values | Supersome 1A2 had the largest relative DNA oxidation and adduction rates | relative lower levels of toxicity
COc1ccccc1N [anisidine, o-anisidine] | increases in ECL with reaction time | N-(2′-deoxyguanosin-8-yl)-2-methoxyaniline | group 2B carcinogen | o-aminophenol | – | – | – | – | – | – | –
